Entries after “also recorded” stand apart in the source; their conditions may differ.
Experiments:
[1] = test system: NRK cells; assay: Nitrotyrosine immunocytochemistry during CS; type: cell-based, rat; conditions: 4 h CS, 1 μM
Description: (§1) Normal rat kidney proximal tubular cells (NRK-52E; American Type Culture Collection, Manassas, Va.) were maintained in six-well 100 or 150-mm, or 150-mm plates in a humidified incubator gassed with 5% CO2 and 95% air at 37° C. in DMEM (Invitrogen, Carlsbad, Calif.) containing 5% fetal calf serum (FCS). Cells were grown to 60% confluence and divided into four treatment groups: 1) untreated (Untx), 2) CS, 3) CS+MitoQ, and 4) CS+DecylTPP. Untreated cells remained at 37° C. in DMEM containing 5% FCS (group 1). CS was initiated by washing cells with cold PBS (Invitrogen) twice and storing them in UW/Viaspan solution alone (4 h at 4° C.) (group 2), CS+MitoQ (1 μM) (group 3), or CS+DecylTPP (1 μM) (group 4). In separate experiments, cells were exposed to CS plus RW by replacing UW solution alone or UW solution containing MitoQ or DecylTPP with DMEM containing 5% FCS overnight (18 h at 37° C.).
(§2) NRK cells (groups 1-4) were assessed for nitrotyrosine formation as previously described. […] Nitrotyrosine staining was evaluated and captured with equal exposure times using a Nikon Eclipse 800 microscope (40×oil). Images were quantified by averaging the mean intensity fluorescence of five random cells in three different fields using Nikon N is Elements software. Renal tissue sections were assessed for the presence of nitrotyrosine protein adducts by nitrotyrosine immunohistochemistry. […]

[2] = test system: mitochondrial respiratory complex II; assay: Mitochondrial respiratory complex activity, rat kidney mitochondria after CS; conditions: rat kidneys, 4-h CS, 100 μM
Description: (§3) All animals were treated according to the National Institutes of Health Guide for the Care and Use of Laboratory Animals and the University of Arkansas for Medical Sciences Institutional Animal Care and Use Committee guidelines. Male Fischer 344 inbred rats (Charles Rivers Laboratories, Inc., Wilmington, Mass.) weighing between 250 and 300 g were anesthetized with ethrane, followed by shaving and prepping with betadine. […] Bulldog clamps were placed on the aorta and vena cava (proximal and distal to the renal vessels) to prevent blood flow to the kidneys. A 22-gauge surgical needle was used to puncture the rat's aorta to flush the renal grafts with saline (10 ml per kidney) using a small catheter. Once the kidneys started to turn light brown (perfusion), another vent was formed in the vena cava to allow blood flow from the kidneys. Once both kidneys were completely flushed, the right kidney was recovered and served as a control (group 1), and the left kidney was exposed to CS alone for 4 h at 4° C. (group 2). In additional experiments, kidneys were flushed with saline through the aorta using a small catheter followed by flushing the right kidney with saline containing MitoQ (100 μM) and the left kidney with saline containing DecylTPP (100 μM) (10 ml per kidney). Tissues were recovered and stored in CS+MitoQ (100 μM; right kidney) or CS+DecylTPP (100 μM; left kidney) for 4 h at 4° C. (groups 3 and 4, respectively). A thin middle section from all of the kidneys were cut and immediately fixed in 10% formalin before being embedded in paraffin for sectioning (4 μm) and histological evaluation. The remaining portion of the kidneys were quickly frozen in liquid nitrogen and stored in −80° C. until needed for biochemistry analyses.
(§4) NRK cell and rat kidney mitochondria were isolated by centrifugation on a sucrose density gradient. The activity of mitochondrial respiratory complexes I, II, III, or IV were assayed spectrophotometrically using 100 μg of mitochondrial protein at 30° C. as previously described.

[3] = test system: mitochondrial respiratory complex I; assay: as above; conditions: rat kidneys, 4-h CS, 100 μM
Description: as §3, §4

[4] = test system: rat kidneys; assay: Periodic acid-Schiff morphological assessment of renal injury during CS; conditions: 4 h CS, 100 μM
Description: All animals were treated according to the National Institutes of Health Guide for the Care and Use of Laboratory Animals and the University of Arkansas for Medical Sciences Institutional Animal Care and Use Committee guidelines. Male Fischer 344 inbred rats (Charles Rivers Laboratories, Inc., Wilmington, Mass.) weighing between 250 and 300 g were anesthetized with ethrane, followed by shaving and prepping with betadine. […] Bulldog clamps were placed on the aorta and vena cava (proximal and distal to the renal vessels) to prevent blood flow to the kidneys. A 22-gauge surgical needle was used to puncture the rat's aorta to flush the renal grafts with saline (10 ml per kidney) using a small catheter. Once the kidneys started to turn light brown (perfusion), another vent was formed in the vena cava to allow blood flow from the kidneys. Once both kidneys were completely flushed, the right kidney was recovered and served as a control (group 1), and the left kidney was exposed to CS alone for 4 h at 4° C. […]
Renal sections were assessed for tissue injury using the periodic acid-Schiff reaction. […] Morphological evaluation of tubular dilation, brush border loss, and cellular debris/tubular cast formation were performed blindly with light microscopy and assessed semiquantitatively according to the following scoring system: 0, no changes; 1, mild changes; 2, moderate changes, and 3, severe changes.

[5] = test system: NRK cells; assay: Nitrotyrosine immunocytochemistry, CS plus rewarming; type: cell-based, rat; conditions: 4-h CS plus overnight (18 h) RW, 1 μM added during CS
Description: as §1, §2

[6] = test system: porcine kidneys; assay: Nitrotyrosine staining of porcine kidneys during cold preservation; set-up: dose or concentration left out as unconfirmed
Description: FIG. 14 depicts micrographs and plots showing increased nitrotyrosine protein expression detected during cold preservation. (A) Representative images showing MitoQ (100 mM) mediated reduction of nitrotyrosine staining. (B) Expression level of total (combined cortex and medulla) nitrotyrosine was evaluated and scored. (C) Expression level of cortical and medulla nitrotyrosine was evaluated and scored. Error bar indicates Mean SEM (n=4). *P<0.05 compared to untreated kidneys at 24 and 48 hr within the cortex.
Nitrotyrosine staining and nitrotyrosine expression levels were used to determine protective effect of MitoQ on porcine kidneys during SC.

[7] = patients with chronic hepatitis C virus infection, phase II clinical trials; cited from earlier work
[8] = two phase II clinical trials for Parkinson's disease and hepatitis C virus; cited from earlier work
[9] = porcine kidneys during cold preservation

COC1=C(OC)C(=O)C(CCCCCCCCCC[P+](c2ccccc2)(c2ccccc2)c2ccccc2)=C(C)C1=O [MitoQ, mitoquinone]
attenuation of nitrotyrosine formation [1]: ~2 fold | complex II inactivation [2]: protected | complex I inactivation [3]: protected | renal histology / renal injury (periodic acid-Schiff staining) [4]: improved renal histology significantly | nitrotyrosine staining during CS.RW [5]: attenuated nitrotyrosine staining significantly | nitrotyrosine expression levels, combined cortex and medulla [6, 9]: reduced | nitrotyrosine staining [6, 9]: significantly decreased; also recorded: reduction | nitrotyrosine expression levels in the cortex ([6]; porcine kidneys, 24 and 48 hr): significantly lower | liver damage [7]: reduce liver damage | safety and tolerability [8]: safe and well tolerated
